Experimental data as given in US7297676B2, “Thymosin alpha 1 peptide/polymer conjugates” (SciClone Pharmaceuticals, Inc., priority 2001, dated 2007).
Ends that are not written are not given here.

Tests used:
[1] = Adverse events observed in the rat studies; type: in vivo
Experimental: In the following examples, which are not intended to be limiting, a continuous infusion of TA1 was evaluated in a cancer therapy model with the use of surgically implanted osmotic minipumps, which deliver fluids at a constant flow rate for 5 days. Rats were given 5-fluorouracil (5-FU) to cause immune suppression, and then treated with injected or infused TA1 8 days later (the nadir of white cell count after 5-FU). Treatment groups, 8 rats each, were: control (minipumps with saline); low dose TA1 (0.2 mg/Kg sc injection; empty minipumps); high dose TA1 (3.5 mg/Kg sc injection; empty minipumps); and high dose infused TA1 (3.5 mg/Kg infused by minipumps). Immune parameters were determined at baseline and 8 days after 5-FU treatment (day 1 of TA1 treatment), and also at 5, 12, 20, and 27 days after TA1 treatment.
8 days after 5-FU treatment, rats were randomly assigned to one of the following groups (n=15): • Control (saline in minipump) • High dose TA1, injected s.c. at 3.5 mg/Kg (with empty minipumps) • Continuous infusion TA1, provided by minipump at 3.5 mg/Kg/5 days

[2] = cited from earlier work
[3] = subcutaneously injected; cited from earlier work
activated T cells, CD25+ = assay: Example 1: return of activated T cells in 5-FU immune-suppressed rats; type: in vivo, rat; conditions: one injection, molar equivalent of 200 ug/kg thymosin, compared with Thymosin alpha 1 200 ug/kg
Experimental: (§1) Rats were injected with 5-fluorouracil (5-FU) to cause immune suppression, then were treated with an injection of thymosin alpha 1 (200 ug/kg) or pegylated thymosin alpha 1 (20,000 MW PEG-Thymosin alpha 1) (the equivalent on a molar basis of 200 ug/kg of thymosin molecules) to determine the effect on immune parameters.

NK activity = assay: Example 1: return of NK activity in 5-FU immune-suppressed rats; type: in vivo, rat; conditions: one injection, molar equivalent of 200 ug/kg thymosin, compared with Thymosin alpha 1 200 ug/kg
Experimental: as §1

## Ac-SDAAVDTSSEITTKDLKEKKEVVEEAEN-OH [TA1, Thymosin alpha 1]
[1]; one rat given both injection 3.5 mg/Kg and continuous infusion of another 3.5 mg/Kg
  adverse events: no obvious adverse events
[1]; rats, doses 15 times higher than usual (in one animal 30 times higher)
  adverse events: No adverse events were observed
[2]
  dose found to be safe for humans: ≤ 16 mg/kg body weight/day
[3]
  plasma half-life: about 2 hours

## PEG-Thymosin alpha 1: 20,000 molecular weight PEG conjugated to the N-terminal end of TA1 ({PEG 20 kDa}-SDAAVDTSSEITTKDLKEKKEVVEEAEN; ends and bridges not checked; UniProt P06454 2-29, looked up)
Activated T cells, CD25+
  return of activated T cells, CD25+: greater
NK activity
  return of NK activity (after depression by 5-FU): greater
